Our source for the Activity values is ChEMBL document CHEMBL4393652, “Development of Isoselenocyanate Compounds' Syntheses and Biological Applications” (2019).

Molecules are shown by their SMILES.

The experiment deals with UACC-903. The experiment in a line: Antitumor activity against human UACC-903 cells xenografted in Nude-Foxn1nu mouse assessed as reduction in tumor size after 24 hrs relative to control. The class given is functional. Details: scale not given: the % may be the effect or the level left. (In general: Xenograft models place foreign cells or tissue in a host animal.)

Turning to `[Se]=C=NCCCCc1ccccc1` [PHENYLBUTYL ISOSELENOCYANATE], the Activity turned out to be 77%.
